The target in assay [1] is purified human Factor XIa (Homo sapiens (Human), UniProt P03951). Kind of assay: Factor XIa Assay. The settings on record: fluorogenic substrate Z-Gly-Pro-Arg-AFC, 40 pM enzyme, pH 7.4; read-out: Human FXIa Ki. Format: biochemical. The method, then: (§1) The effectiveness of a compound of the present invention as an inhibitor of Coagulation Factor XIa can be determined using a relevant purified serine protease, and an appropriate synthetic substrate. The rate of hydrolysis of the chromogenic or fluorogenic substrate by the relevant serine protease was measured both in the absence and presence of compounds of the present invention. Assays were conducted at room temperature or at 37° C. […] A decrease in the rate of fluorescence change in the presence of inhibitor is indicative of enzyme inhibition. Such methods are known to one skilled in the art. The results of this assay are expressed as the inhibitory constant, Ki.
Chain of purified human Factor XIa (P03951 388-625): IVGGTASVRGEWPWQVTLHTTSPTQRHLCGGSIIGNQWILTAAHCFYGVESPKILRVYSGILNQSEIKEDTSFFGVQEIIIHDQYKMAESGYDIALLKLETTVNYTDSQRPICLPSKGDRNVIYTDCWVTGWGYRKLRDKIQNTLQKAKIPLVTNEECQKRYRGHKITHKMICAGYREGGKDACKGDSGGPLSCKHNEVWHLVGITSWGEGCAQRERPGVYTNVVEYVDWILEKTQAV
Chain of purified human Factor XIa (P03951 19-387 partner): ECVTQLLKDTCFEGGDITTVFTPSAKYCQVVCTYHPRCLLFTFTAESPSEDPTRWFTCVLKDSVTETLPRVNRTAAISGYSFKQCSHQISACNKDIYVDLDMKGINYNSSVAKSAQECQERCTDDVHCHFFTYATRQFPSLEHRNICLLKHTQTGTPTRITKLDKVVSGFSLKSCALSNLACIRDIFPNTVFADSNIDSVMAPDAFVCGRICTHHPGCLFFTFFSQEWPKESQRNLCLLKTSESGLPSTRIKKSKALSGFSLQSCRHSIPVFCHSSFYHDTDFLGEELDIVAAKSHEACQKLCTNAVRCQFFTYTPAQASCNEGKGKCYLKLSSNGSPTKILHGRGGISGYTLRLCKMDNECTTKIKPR
Factor XIa determinations were made in 50 mM HEPES buffer at pH 7.4 containing 150 mM NaCl, 5 mM CaCl2, and 0.1% PEG 8000 (polyethylene glycol; JT Baker or Fisher Scientific). Determinations were made using purified human Factor XIa at a final concentration of 40 pM (Sekisui Diagnostics) and he synthetic substrate, Z-Gly-Pro-Arg-AFC, TFA salt (Sigma #C0980) at a concentration of […].
Activity assays were performed by diluting a stock solution of substrate at least tenfold to a final concentration ≤0.1 Km into a solution containing enzyme or enzyme equilibrated with inhibitor. Times required to achieve equilibration between enzyme and inhibitor were determined in control experiments. Initial velocities of product formation in the absence (V0) or presence of inhibitor (V1) were measured. Assuming competitive inhibition, and that unity is negligible compared Km/[S], [I]/e, and [I]/e (where [S], [I], and e respectively represent the total concentrations, of substrate, inhibitor and enzyme), the equilibrium constant (Ki) for dissociation of the inhibitor from the enzyme can be obtained from the dependence of V0/Vi on [I] shown in the following equation. V0/Vi=1+[I]/Ki

For assay [2], the target named is purified Human plasma kallikrein (Homo sapiens (Human), UniProt P03952). As to the kind of experiment: Kallikrein Assay. In kind it is biochemical. The settings on record: fluorogenic substrate Acetyl-K-P-R-AFC, 0.5 nM enzyme, pH 7.4; Ki from IC50 by Cheng Prusoff. The method, then:
as §1, with “Kallikrein” for “Coagulation Factor XIa”
Kallikrein determinations were made in 50 mM HEPES buffer at pH 7.4 containing 150 mM NaCl, 5 mM CaCl2, and 0.1% PEG 8000 (polyethylene glycol; Fisher Scientific). Determinations were made using purified Human plasma kallikrein at a final concentration of 0.5 nM (Enzyme Research Laboratories) and the synthetic substrate, Acetyl-K-P-R-AFC (Sigma #C6608) at a concentration of […].
Activity assays were performed by diluting a stock solution of substrate at least tenfold to a final concentration≤0.2 Km into a solution containing enzyme or enzyme equilibrated with inhibitor. Times required to achieve equilibration between enzyme and inhibitor were determined in control experiments. The reactions were performed under linear progress curve conditions and fluorescence increase measured at 405 Ex/510 Em nm. Values were converted to percent inhibition of the control reaction (after subtracting 100% Inhibition value). IC50 was determined by inflection point from a four parameter logistic curve fit. Ki was calculated using the Cheng Prusoff equation, Ki=IC50/(1+([S]/Km)).

Broadly, the Ki is a measure of affinity in units of concentration, obtained from inhibition or displacement.

Chain of purified Human plasma kallikrein (P03952 391-638): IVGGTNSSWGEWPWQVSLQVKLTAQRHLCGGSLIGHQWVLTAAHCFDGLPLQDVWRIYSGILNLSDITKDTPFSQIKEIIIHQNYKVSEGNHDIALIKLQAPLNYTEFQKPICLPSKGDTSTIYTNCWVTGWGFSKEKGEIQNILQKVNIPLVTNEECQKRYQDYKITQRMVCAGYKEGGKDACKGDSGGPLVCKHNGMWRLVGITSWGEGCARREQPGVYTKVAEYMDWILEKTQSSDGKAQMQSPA
Chain of purified Human plasma kallikrein (P03952 20-390 partner): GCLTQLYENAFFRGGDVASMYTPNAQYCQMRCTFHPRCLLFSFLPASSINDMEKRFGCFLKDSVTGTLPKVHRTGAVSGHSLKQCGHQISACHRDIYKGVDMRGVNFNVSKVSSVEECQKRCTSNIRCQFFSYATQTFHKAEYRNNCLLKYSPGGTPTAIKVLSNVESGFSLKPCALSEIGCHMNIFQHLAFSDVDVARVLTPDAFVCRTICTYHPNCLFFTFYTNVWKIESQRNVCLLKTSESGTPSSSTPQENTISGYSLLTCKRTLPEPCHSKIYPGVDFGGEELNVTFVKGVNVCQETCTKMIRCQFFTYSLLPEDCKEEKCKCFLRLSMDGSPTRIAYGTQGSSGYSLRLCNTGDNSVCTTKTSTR

Take `Nc1n[nH]c2cc(C(=O)N[C@@H](Cc3ccccc3)c3ccc(-c4cc(Cl)ccc4-n4cnnn4)c[n+]3[O-])ccc12` [Example 1, (S)-2-(1-(3-AMMONIO-1H-INDAZOLE-6-CARBOXAMIDO)-2-PHENYLETHYL)-5-(5-CHLORO-2-(1H-TETRAZOL-1-YL)PHENYL)PYRIDINE 1-OXIDE 2,2,2-TRIFLUOROACETATE]: the inhibitory constant (Ki) in assay [1] worked out at 0.9 nM; in assay [2], 25 nM. For `COC(=O)Nc1ccc(C(=O)N[C@@H](Cc2ccccc2)c2ccc(-c3cc(Cl)ccc3-n3cnnn3)c[n+]2[O-])cc1` [Example 2, (S)-5-(5-chloro-2-(1H-tetrazol-1-yl)phenyl)-2-(1-(4-((methoxycarbonyl)amino)benzamido)-2-phenylethyl)pyridine 1-oxide] the same measures were 3.6 nM and 105 nM. Take `COC(=O)Nc1cccc(C(=O)NC(Cc2ccccc2)c2ccc(-c3cc(Cl)ccc3-n3cnnn3)c[n+]2[O-])c1` (stereo not drawn) [Example 3]: the inhibition constant Ki in assay [1] was found to be 144 nM.

Regarding `NC(=O)c1ccc(C(=O)N[C@@H](Cc2ccccc2)c2ccc(-c3cc(Cl)ccc3-n3cnnn3)c[n+]2[O-])s1` [Example 4], the inhibition constant Ki in assay [1] was 1.3 nM; in assay [2], 36 nM.

Consider `O=C(O)c1ccc(C(=O)NC(Cc2ccccc2)c2ccc(-c3cc(Cl)ccc3-n3cnnn3)c[n+]2[O-])cc1` (stereo not drawn) [Example 5], for which the inhibition constant Ki in assay [1] was determined as 83 nM. For `O=C(O)c1ccc(C(=O)N[C@@H](Cc2ccccc2)c2ccc(-c3cc(Cl)ccc3-n3cnnn3)c[n+]2[O-])s1` [Example 6], the values for the Ki in assay [1] and in assay [2] were 6.9 nM and 219 nM, respectively.

With `COCC(=O)Nc1ccc(C(=O)N[C@@H](Cc2ccccc2)c2ccc(-c3cc(Cl)ccc3-n3cnnn3)c[n+]2[O-])cc1` [Example 7], the inhibition constant Ki in assay [1] stood at 20 nM; in assay [2] it was 516 nM.
